Source: patent US12110289B2, “Heterocyclic compounds, preparation methods and uses thereof” (InventisBio Co., Ltd., priority 2020, dated 2024)

Key:
SW837 xenograft = experiment: Colorectal adenocarcinoma SW837 xenograft model, tumor volume; type: in vivo, BALB/c nude mice; details: 30 mg/kg oral once daily vs AMG510 at 60 mg/kg; FIG. 1
Experimental: All the procedures related to animal handling, care and the treatment in this study were performed according to the guidelines approved by the Institutional Animal Care and Use Committee (IACUC) of SIPPER B&K following the guidance of the Association for Assessment and Accreditation of Laboratory Animal Care (AAALAC). At the time of routine monitoring, the animals were checked for any effects of tumor growth on normal behavior such as mobility, food and water consumption (by looking only), body weight gain/loss (body weights were measured twice weekly), eye/hair matting and any other abnormal effect. Death and observed clinical signs were recorded on the basis of the numbers of animals within each subset.
The NCI-H358, SW837, NCI-H2122 tumor cells were purchased from the American Type Culture Collection (ATCC). Cells were maintained in vitro as monolayer cultured in RPMI-1640 or DMEM medium supplemented with 10% fetal bovine serum, 50 IU/ml penicillin/streptomycin (GIBCO) at 37° C. in an atmosphere of 5% CO2 in air. The tumor cells were routinely sub cultured twice weekly by trypsin-EDTA treatment. The cells growing in an exponential growth phase were harvested and counted for tumor inoculation.
For tumor bearing models, female 6- to 8-week-old athymic BALB/c nude mice were used for human cancer cell lines. Each mouse was inoculated subcutaneously at the right flank with tumor cells (10×10^6) in 0.1 ml of PBS. The treatments were started when the average tumor size reached approximately 200-250 mm^3. Carboplatin, Cisplatin was injected twice a week by i.p. Vehicles and other test articles were given orally as a suspension by gavage once daily during the study or treatment period.
Tumor volume was calculated by measuring two perpendicular diameters using the following formula: (L×W 2)/2 in which L and W refer to the length and width tumor diameter, respectively. Results are expressed as mean and standard deviation of the mean.

[1] = test system: Lung cancer cell line NCI-H358 containing KRas G12C mutation; experiment: Assay for cell proliferation (Cell-titer Glo, 5 days); type: cell-based, human
In short: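 NCI-H358 (KRas G12C) cells, 2000 per well, attached overnight at 37 °C, 5% CO2, then treated with compound for 5 days at 0.5% DMSO final. Proliferation measured by CellTiter-Glo luminescence after 10 min at RT.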

pooled human hepatocytes = experiment: Human hepatocyte clearance study; type: in vitro ADME

C=CC(=O)N1C[C@H](C)N(c2nc(=O)n(-c3c(C4CC4)ncnc3C3CC3)c3nc(-c4c(N)cccc4F)c(Cl)cc23)C[C@H]1C [Compound 126]
reducing tumor volume compared with AMG510 (SW837 xenograft): more effective than AMG510
potency in inhibiting KRAS G12C compared with corresponding isopropyl analogs [1]: better potency
IC50 ([1]; Homo sapiens, NCI-H358, 120 h, NCI-H358, 5 days, Cell-titer Glo, read-out: IC50 (nM), Inhibition of NCI-H358 Cell Proliferation): 0.6 nM
fold more potent: 2-amino-6-fluoro-phenyl compound vs. corresponding 2-fluoro-phenyl compound at R8 ([1]; NCI-H358 IC50 comparison): about 15 ×
human hepatocyte clearance profile compared to control compounds (pooled human hepatocytes): better human hepatocyte clearance profile
Human Hepatocyte Remaining Percentage @ 120 min (%) (pooled human hepatocytes; working cell density 2 × 10^6 viable cells/mL): 47.8%
